Results: patent US10793892B2, “Method for detecting the presence of expanded spectrum β-lactamase-producing bacteria in a sample” (INSERM (INSTITUT NATIONAL DE LA SANTE ET DE LA RECHERCHE …, priority 2011, dated 2020)

System: E. cloacae
Assay: ESBL NDP test using spiked blood cultures
Assay type: biochemical, Enterobacter cloacae
Set-up: key: (+) and (−) referred to color change being, red to yellow or unchanged, respectively; (+) and (−) referred to color change being, red to yellow or unchanged, respectively
Experimental: Strains were isolated on Mueller-Hinton agar (Biorad, Marnes-la-Coquette, France) and incubated at 37° C. for 16 h to 24 h before performing the NDP rapid ESBL test as follows. One calibrated inoculated loop (10 μl) of the tested strain was resuspended in 150 μl of 20 mM Tris-HCl lysis buffer previously distributed in Microbead tubes (Ultraclean Microbial DNA isolation kit Bead Tubes, MO BIO Laboratories, Carlsbad, USA). Mechanical lysis of bacteria was performed by strong agitation of Microbead tubes using a vortex adapter (MO BIO Laboratories) for 30 min at room temperature. This bacterial suspension was centrifuged at 10,000×g at room temperature for 5 min. Thirty μl of the supernatant was mixed in a well of a 96-well tray with 100 μl of a 1 ml solution made of 3 mg of purified cefotaxime sodium salt (Sigma-Aldrich, Saint-Quentin-Fallavier, France) in a pH 7.8 phenol red solution. […]. The phenol red solution was made by taking 2 ml of a concentrated pH 8 phenol solution (made from a mixture of phenol red 0.5% in distilled water) to which 16.6 ml of distilled water was added. The pH value was then adjusted to a 7.8 value by adding drops of a 1 N NaOH solution. Mixture of the phenol red solution and the enzymatic suspension being tested was incubated at 37° C. for 30 min. Similarly, culture extracts were analyzed in wells containing cefotaxime and tazobactam (4 mg/ml). Other concentrations of tazobactam and other ß-lactamase inhibitors were tested giving less clear results (data not shown). […] This definition of test positivity will be applied throughout the study.
Rapid detection of ESBL producers was attempted from spiked blood cultures which positivity was assessed using the BactAlert blood culture system (bioMérieux). […] This inoculum was reached after 24-48 h incubation in this BactAlert system. Strains were inoculated into blood culture system in presence of 10 ml of sterile blood. The panel of strains used for spiking blood cultures included either non-ESBL producers (n=24) or ESBL producers (n=64) (Table 4). Spiked blood cultures were made of 1×10^3 CFU of each strain and incubated 24 to 48 h before a positivity of the blood culture was detected by the BactAlert system. Then, 15 ml of spiked blood culture were transferred in a sterile tube and centrifuged at 1,500×g for 3 min to pellet the red blood cells. The supernatant was recovered and centrifuged for 15 min at 4,000×g to pellet the bacteria. The bacterial pellet was then resuspended in 500 μl of distilled water, transferred in 1.5 ml tube and thoroughly vortexed for 15 sec to lyse the remnant red blood cells and wash the bacterial pellet. After 5 min of centrifugation at 10,000×g, the bacterial pellet was resuspended in 150 μl of 20 mM Tris-HCl lysis buffer and distributed in beadtubes. The ESBL NDP test was then applied to this pellet as described above. Experiments were systematically performed in triplicate.

CO/N=C(\C(=O)N[C@@H]1C(=O)N2C(C(=O)O)=C(COC(C)=O)CS[C@H]12)c1csc(N)n1 [CTX, cefotaxime]
ESBL NDP Test from: Blood culture (E. cloacae 09.57, SHV-12): + | ESBL NDP Test from: Blood culture (E. cloacae 10.75, CTX-M-15): + | ESBL NDP Test from: Blood culture (E. cloacae 10.87, CTX-M-15): + | ESBL NDP Test from: Blood culture (E. cloacae BG 1106 7725, Wild-type): − | ESBL NDP Test from: Blood culture (E. cloacae BG 1106 7746, Wild-type): − | ESBL NDP Test from: Blood culture (E. cloacae BG 1107 4118, Wild-type): −
